For assay [1], the target named is G140S-Q148H (SH) mutant HIV-1 IN (Human immunodeficiency virus type 1 group M subtype B, UniProt P12497, G1287S/Q1295H). To be noted: abasic substrates vs normal substrate. Here is the method: (§1) Oligonucleotides harboring a tetrahydrofuran group in place of the nucleobase at position −1 (21Ab-1, […]_GT), at position +1 (21Ab+1, […]_T), position +2 (21Ab+2, […]_) and in place of the last 2 bases (21-2Ab, […]__) were purchased from Eurogentec with PAGE purification. 5’-Labeling was performed using T4 polynucleotide kinase (New England Biolabs, Ipswich, MA, USA) with [γ-^32P]-ATP (Perkin-Elmer Life and Analytical Sciences, Boston, MA, USA) according to the manufacturers’ instructions. Unincorporated isotopes were removed using the Mini Quick spin oligo columns (Roche). Duplex substrates were obtained by annealing ‘top’ (21t or 19t) and ‘bottom’ (21b) oligonucleotides at equimolar ratio.
(§2) WT and mutant INs were purified and their enzymatic activities measured as previously reported ([11]). […] 3′-P and ST reactions were performed at 37°C for 120 min unless otherwise indicated.
(§3) Linear regressions, fit curves, IC50 determinations, standard deviations, standard error of the mean and statistical analyses (P-values) were generated using GraphPad Prism software 5.0c. Pearson and Spearman correlations were determined using the following equation: […]

For assay [2], the system named is WT HIV-1 intasome. The conditions noted are these: cited from earlier work.
Assay [3] concerns the target T1, WT HIV-1 IN (Human immunodeficiency virus type 1 group M subtype B, UniProt P12497).
T1 construct: we tested the 3′-P activity of WT and SH mutant integrases; made in house
The assay can be described thus: 3'-processing (3'-P) inhibition, recombinant WT IN, gel-based. Type of assay: biochemical. The method, then:
as §1, §2, §3

Assay [4] addresses T1, WT HIV-1 IN. To be noted: read-out: IC50, inhibition of ST; cited from earlier work.

SMILES strings stand for the structures. pIC50: −log10 of the molar value. Several values for one entry are separate records, joined by “and”; a condition that tells them apart may be missing. Equal entries are not always repeated. Where two headings read alike, the source gives them in different places.

Regarding `C[C@@H]1CCO[C@H]2Cn3cc(C(=O)NCc4ccc(F)cc4F)c(=O)c(O)c3C(=O)N12` [DTG, dolutegravir], the “Increase of IC50 for 3'-P on removing either the -1 or +1 base” value in assay [1] is recorded as “about 100 fold”. For the same compound, in assay [2] (longer than EVG), the “Time bound to the WT HIV-1 intasome relative to EVG” value is on record as 26 fold. In addition, the “Time bound to the WT HIV-1 intasome relative to RAL” value in assay [2] (longer than RAL) was 8 fold. For the same compound, the “Selectivity index (SI) for 3'-P/ST” value in assay [3] (IC50 for 3'-P divided by IC50 for ST) was 50. Also, the pIC50 (commonly the negative decadic logarithm of the IC50, by convention in mol/L) in assay [3] (read-out: IC50, inhibition of 3'-P, canonical CAGT substrate, 120 min) is 5.79 and 5.80; in assay [4], 7.48.

(Values after article PMC5001616 (Nucleic Acids Research, 2016).)
